# Earlier results, collected in patent publication US6265392A, “Low oxygen content compositions of 1α, 25-dihydroxycholeclciferol” (Abbott Laboratories, priority 2000, dated 2001).
# Experiments:
# [1] = free molecules and other reactive forms of oxygen; in solution
# [2] = system: intestinal absorption of calcium and phosphorous; conditions: in vivo
# [3] = system: renal osteodystrophy, hypoparathyroidism, osteomalacia, osteoporosis, hepatic osteodystrophy, vitamin D-resistant rickets, vitamin D-dependent rickets …; conditions: children and adults; literature
compound,measurement,setting,value
"C=C1/C(=C\C=C2/CCC[C@]3(C)[C@@H]([C@H](C)CCCC(C)(C)O)CC[C@@H]23)C[C@@H](O)C[C@@H]1O [1α,25-dihydroxycholecalciferol]",Solubility in organic solvents,organic solvents,soluble in organic solvents
same,Solubility in water,water,practically insoluble in water
same,Sensitivity to oxygen,[1],sensitive to the presence of oxygen
same,Effect on intestinal absorption of calcium and phosphorous,[2],stimulates intestinal absorption of calcium and phosphorous
same,Treatment outcome,[3],successful treatment
